Key:
[1] = test system: LSCs; assay: Colony forming capacity (CFC) of iMLL-AF9 LT-HSC derived LSCs; type: cell-based, mouse; details: 200 nM Ara-C or 30 μM 1632, 48 h
Excerpt: In addition, Lin28 was independently found to be a key driver in MLL-associated leukemias (56). In order to further characterize the role of Lin28/let-7 in regulating AML, LSC proliferation and therapy resistance in vivo, we used a doxycycline (DOX) inducible, transgenic mouse model for MLL-AF9-driven AML (iMLL-AF9 (57)). In this model, long-term HSC (LT-HSC, Lin^−CD34^−[…] c-Kit^+ CD150^+ CD48^−) derived AML blasts closely mirror an LSC-like phenotype resulting in a particularly aggressive, Cytarabine (Ara-C) resistant AML (57). […] Moreover, relapsed AML cells arising from rLSCs after treatment with Ara-C (100 mg/kg) at d+60 were even further enriched in Lin28b expression (FIG. 2B). Additionally, levels of both, let-7a and let-7b miRNAs, negatively correlated with increased Lin28b in rLSCs (FIG. 2C) (10, 39). Our findings are consistent with papers reporting that increased Lin28 correlates with disease recurrence post chemotherapy in colon and liver cancer stem cells (22, 58).
As Lin28 is overexpressed human AML, LSCs and rLSCs, we sought to determine if genetic Lin28b or pharmacologic Lin28/let-7 inhibition via LN1632 can abrogate proliferation of LSCs and thus overcome their therapy resistance. […]

[2] = test system: 22RV1; assay: Cell viability, MTT assay, 22RV1; type: cell-based; details: Homo sapiens, 22RV1 (Prostate), 96 hr
Procedure: (§1) To measure cell viability, cell titer glow (CTG, Promega CellTiter-Glo 2.0 Assay) and MTT assays (SigmaAldrich, Cell Proliferation Kit I) were performed. Briefly, cells were serum starved overnight prior to seeding in 96-well plates. Following 24 h incubation, cells were treated with increasing concentrations of JGJ compounds for 96 hr. At assay read-out, CellTiter-Glo reagent was added and luminescence was measured after 10-minutes incubation at room temperature. For the MTT assay, MTT labeling reagent was added and incubated for 4 h. Subsequently, medium was removed and 50 μL DMSO was added to solubilize the crystals, and absorbance was measured at 570 nm. Cell viability was calculated as (Sample-Background)/(Control-Background).

[3] = test system: 22RV1; assay: Cell viability, CellTiter-Glo (CTG), 22RV1; type: cell-based; details: Homo sapiens, 22RV1 (Prostate), 96 hr
Procedure: as §1

[4] = test system: MDA-MB231; assay: Cell viability, CTG, MDA-MB231; type: cell-based; details: Homo sapiens, MDA-MB-231, MDA-MB231 (Breast)
Procedure: as §1, with “(Sample-Background)/(Control-Background). Current standard of care drugs, Enzalutamide, Palbociclib and Cetuximab were used as comparative controls.” for “(Sample-Background)/(Control-Background).”

[5] = test system: MCF7; assay: Cell viability, CTG, MCF7; type: cell-based; details: Homo sapiens, MCF7 (Breast)
Procedure: as §1, with “(Sample-Background)/(Control-Background). Current standard of care drugs, Enzalutamide, Palbociclib and Cetuximab were used as comparative controls.” for “(Sample-Background)/(Control-Background).”

[6] = test system: HCT-116; assay: Cell viability, CTG, HCT-116; type: cell-based; details: Homo sapiens, HCT-116 (Colon)
Procedure: as §1, with “(Sample-Background)/(Control-Background). Current standard of care drugs, Enzalutamide, Palbociclib and Cetuximab were used as comparative controls.” for “(Sample-Background)/(Control-Background).”

[7] = test system: SW620; assay: Cell viability, MTT assay, SW620; type: cell-based; details: Homo sapiens, SW-620, SW620 (Colon)
Procedure: as §1, with “(Sample-Background)/(Control-Background). Current standard of care drugs, Enzalutamide, Palbociclib and Cetuximab were used as comparative controls.” for “(Sample-Background)/(Control-Background).”

[8] = test system: SW620; assay: Cell viability, CTG, SW620; type: cell-based; details: Homo sapiens, SW-620, SW620 (Colon)
Procedure: as §1, with “(Sample-Background)/(Control-Background). Current standard of care drugs, Enzalutamide, Palbociclib and Cetuximab were used as comparative controls.” for “(Sample-Background)/(Control-Background).”

[9] = test system: SW480; assay: Cell viability, MTT assay, SW480; type: cell-based; details: Homo sapiens, SW480 (Colon)
Procedure: as §1, with “(Sample-Background)/(Control-Background). Current standard of care drugs, Enzalutamide, Palbociclib and Cetuximab were used as comparative controls.” for “(Sample-Background)/(Control-Background).”

[10] = test system: SW480; assay: Cell viability, CTG, SW480; type: cell-based; details: Homo sapiens, SW480 (Colon)
Procedure: as §1

[11] = test system: ASPC-1; assay: Cell viability, CTG, ASPC-1; type: cell-based; details: Homo sapiens, ASPC1, ASPC-1 (Pancreatic)
Procedure: as §1, with “(Sample-Background)/(Control-Background). Current standard of care drugs, Enzalutamide, Palbociclib and Cetuximab were used as comparative controls.” for “(Sample-Background)/(Control-Background).”

[12] = test system: CAPAN-1; assay: Cell viability, CTG, CAPAN-1; type: cell-based; details: Homo sapiens, CAPAN-1 (Pancreatic)
Procedure: as §1, with “(Sample-Background)/(Control-Background). Current standard of care drugs, Enzalutamide, Palbociclib and Cetuximab were used as comparative controls.” for “(Sample-Background)/(Control-Background).”

[13] = Caco2 permeability; type: in vitro ADME; details: human, Caco-2, Conc. 5 uM
[14] = Microsomal stability, CD-1 Mouse; type: in vitro ADME; details: Conc. 5 uM
[15] = Microsomal stability, Human; type: in vitro ADME; details: Conc. 5 uM
[16] = target: T1, CYP 1A2 (Homo sapiens, UniProt P05177); assay: CYP inhibition 1A2; type: in vitro ADME; design: unit not given here; details: Conc. 10 uM
T1 sequence (P05177 1-516): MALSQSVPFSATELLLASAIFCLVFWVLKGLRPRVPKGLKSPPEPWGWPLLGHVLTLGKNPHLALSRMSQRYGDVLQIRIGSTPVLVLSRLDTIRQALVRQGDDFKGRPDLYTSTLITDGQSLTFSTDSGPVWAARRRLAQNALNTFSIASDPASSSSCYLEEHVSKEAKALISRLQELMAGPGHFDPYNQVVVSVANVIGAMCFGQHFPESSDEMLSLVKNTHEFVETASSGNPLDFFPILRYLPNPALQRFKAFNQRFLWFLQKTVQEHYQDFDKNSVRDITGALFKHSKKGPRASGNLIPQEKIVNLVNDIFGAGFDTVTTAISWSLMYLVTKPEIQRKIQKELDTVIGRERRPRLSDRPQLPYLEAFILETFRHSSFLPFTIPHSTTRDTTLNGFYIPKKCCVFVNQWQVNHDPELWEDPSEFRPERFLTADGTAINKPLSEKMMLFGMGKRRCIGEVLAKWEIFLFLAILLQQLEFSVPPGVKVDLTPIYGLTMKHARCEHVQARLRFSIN

[17] = target: T2, CYP 2B6 (Homo sapiens, UniProt P20813); assay: CYP inhibition 2B6; type: in vitro ADME; design: unit not given here; details: Conc. 10 uM
T2 sequence (P20813 1-491): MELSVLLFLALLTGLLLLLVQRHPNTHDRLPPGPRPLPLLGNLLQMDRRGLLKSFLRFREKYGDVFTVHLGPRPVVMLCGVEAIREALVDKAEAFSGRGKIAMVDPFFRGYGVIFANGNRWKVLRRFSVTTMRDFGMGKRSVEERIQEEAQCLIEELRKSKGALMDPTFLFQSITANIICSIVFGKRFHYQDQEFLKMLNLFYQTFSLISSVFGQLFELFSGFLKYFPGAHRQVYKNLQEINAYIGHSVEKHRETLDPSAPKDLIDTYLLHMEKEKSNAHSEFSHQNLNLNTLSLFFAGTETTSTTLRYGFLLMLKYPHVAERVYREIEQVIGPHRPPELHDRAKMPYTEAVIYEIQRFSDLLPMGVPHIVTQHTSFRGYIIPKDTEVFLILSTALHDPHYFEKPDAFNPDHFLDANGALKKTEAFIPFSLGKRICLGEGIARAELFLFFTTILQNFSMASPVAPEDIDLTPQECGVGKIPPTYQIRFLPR

[18] = target: T3, CYP 2C8 (Homo sapiens, UniProt P10632); assay: CYP inhibition 2C8; type: in vitro ADME; design: unit not given here; details: Conc. 10 uM
T3 sequence (P10632 1-490): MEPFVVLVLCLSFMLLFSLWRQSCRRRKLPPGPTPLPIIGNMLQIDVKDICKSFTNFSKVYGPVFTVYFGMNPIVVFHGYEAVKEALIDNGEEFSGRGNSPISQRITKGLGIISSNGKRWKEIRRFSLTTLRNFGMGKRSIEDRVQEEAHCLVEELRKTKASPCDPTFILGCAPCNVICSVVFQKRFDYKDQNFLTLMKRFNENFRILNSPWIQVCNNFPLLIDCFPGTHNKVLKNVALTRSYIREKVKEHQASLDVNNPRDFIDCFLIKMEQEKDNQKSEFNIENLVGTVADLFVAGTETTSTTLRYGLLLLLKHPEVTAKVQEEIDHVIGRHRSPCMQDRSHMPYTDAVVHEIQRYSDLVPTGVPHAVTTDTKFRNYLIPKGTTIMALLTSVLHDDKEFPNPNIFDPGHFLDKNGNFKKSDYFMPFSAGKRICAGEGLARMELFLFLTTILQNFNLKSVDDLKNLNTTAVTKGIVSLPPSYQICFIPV

[19] = target: CYP 2C9 (Homo sapiens, UniProt P11712); assay: CYP inhibition 2C9; type: in vitro ADME; design: unit not given here; details: Conc. 10 uM
Sequence of CYP 2C9 (P11712 whole entry): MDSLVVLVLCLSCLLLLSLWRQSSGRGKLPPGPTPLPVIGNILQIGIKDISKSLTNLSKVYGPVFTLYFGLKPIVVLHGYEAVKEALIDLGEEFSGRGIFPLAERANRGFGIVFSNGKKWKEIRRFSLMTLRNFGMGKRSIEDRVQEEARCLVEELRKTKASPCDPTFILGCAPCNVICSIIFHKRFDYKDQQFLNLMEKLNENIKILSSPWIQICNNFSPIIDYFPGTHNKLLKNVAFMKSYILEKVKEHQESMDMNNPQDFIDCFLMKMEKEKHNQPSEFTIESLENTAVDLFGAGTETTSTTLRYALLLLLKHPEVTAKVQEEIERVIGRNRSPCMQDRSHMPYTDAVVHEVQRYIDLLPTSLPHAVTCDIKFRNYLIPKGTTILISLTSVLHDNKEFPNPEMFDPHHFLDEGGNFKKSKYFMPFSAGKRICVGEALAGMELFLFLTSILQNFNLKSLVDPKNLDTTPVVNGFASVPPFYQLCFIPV

[20] = target: CYP 2C19 (Homo sapiens, UniProt P33261); assay: CYP inhibition 2C19; type: in vitro ADME; design: unit not given here; details: Conc. 10 uM
Sequence of CYP 2C19 (P33261 whole entry): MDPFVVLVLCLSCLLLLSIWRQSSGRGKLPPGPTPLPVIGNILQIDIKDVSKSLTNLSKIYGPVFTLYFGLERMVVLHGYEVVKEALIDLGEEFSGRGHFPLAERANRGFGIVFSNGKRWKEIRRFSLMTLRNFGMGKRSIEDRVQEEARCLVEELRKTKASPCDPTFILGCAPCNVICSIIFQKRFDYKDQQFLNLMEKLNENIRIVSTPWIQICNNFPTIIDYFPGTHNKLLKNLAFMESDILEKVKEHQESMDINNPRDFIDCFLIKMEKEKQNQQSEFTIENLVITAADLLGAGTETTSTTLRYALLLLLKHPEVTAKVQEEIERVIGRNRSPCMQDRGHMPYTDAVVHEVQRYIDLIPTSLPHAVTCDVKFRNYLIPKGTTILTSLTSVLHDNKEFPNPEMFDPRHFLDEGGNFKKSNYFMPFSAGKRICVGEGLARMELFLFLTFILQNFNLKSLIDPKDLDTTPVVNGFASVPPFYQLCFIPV

[21] = target: CYP 2D6 (Homo sapiens, UniProt P10635); assay: CYP inhibition 2D6; type: in vitro ADME; design: unit not given here; details: Conc. 10 uM
Sequence of CYP 2D6 (P10635 whole entry): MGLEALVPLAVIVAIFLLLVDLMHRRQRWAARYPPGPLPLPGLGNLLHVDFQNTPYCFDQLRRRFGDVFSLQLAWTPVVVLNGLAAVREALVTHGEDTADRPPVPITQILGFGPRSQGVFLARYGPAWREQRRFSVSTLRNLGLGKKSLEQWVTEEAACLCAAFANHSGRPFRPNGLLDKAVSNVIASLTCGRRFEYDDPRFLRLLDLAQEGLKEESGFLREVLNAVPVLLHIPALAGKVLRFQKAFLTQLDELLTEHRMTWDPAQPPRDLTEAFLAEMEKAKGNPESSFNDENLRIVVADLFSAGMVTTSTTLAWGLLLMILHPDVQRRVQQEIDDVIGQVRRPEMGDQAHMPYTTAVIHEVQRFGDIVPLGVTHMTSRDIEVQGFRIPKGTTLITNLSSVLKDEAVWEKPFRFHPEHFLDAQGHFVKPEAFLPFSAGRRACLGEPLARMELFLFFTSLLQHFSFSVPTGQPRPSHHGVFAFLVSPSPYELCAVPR

[22] = test system: MYC-driven cancers; assay: Cell viability and cell counting assays in cancer cells; type: cell-based; details: TNBC, CRPC, lung and colorectal adenocarcinoma cells
Procedure: To test whether LN1632 and novel analogs thereof affect cancer cell growth, cell viability and cell counting assays in TNBC (FIG. 14B-D), castration resistant prostate cancer cells (CRPC, FIG. 15A-C) and colorectal cancer cells (CRC, FIG. 15A-C) were performed.
as §1, with “(Sample-Background)/(Control-Background). Current standard of care drugs, Enzalutamide, Palbociclib and Cetuximab were used as comparative controls.” for “(Sample-Background)/(Control-Background).”

[23] = test system: BT-549; assay: Cell viability, MTT assay, BT-549; type: cell-based; details: Homo sapiens, BT-549 (Breast)
Procedure: as §1, with “(Sample-Background)/(Control-Background). Current standard of care drugs, Enzalutamide, Palbociclib and Cetuximab were used as comparative controls.” for “(Sample-Background)/(Control-Background).”

[24] = test system: MCF7; assay: Cell viability, MTT assay, MCF7; type: cell-based; details: Homo sapiens, MCF7 (Breast)
Procedure: as §1, with “(Sample-Background)/(Control-Background). Current standard of care drugs, Enzalutamide, Palbociclib and Cetuximab were used as comparative controls.” for “(Sample-Background)/(Control-Background).”

[25] = microsomes, read-out: Microsomal stability T½

In the case of `Nc1ccn([C@@H]2O[C@H](CO)[C@@H](O)[C@@H]2O)c(=O)n1` [Ara-C, Cytarabine], the “Colony forming capacity cell numbers (CFCs) of LSCs” value [1] is reported as “did not alter colony forming capacity cell numbers (CFCs)”.
Compound `CC(=O)Nc1cc(F)cc(-c2ccc3[nH]cc(-c4ccccc4)c3n2)c1` [JGJ037, N-(3-Fluoro-5-(3-phenyl-1H-pyrrolo[3,2-b]pyridin-5-yl)phenyl)acetamide] has an IC50 [2] of 2 µM, an IC50 [3] of 3 µM and an IC50 [4] of 11 µM. The IC50 [5] was 15 µM, the IC50 [6] was 76 µM and the IC50 [7] was 8.5 µM. It also gave an IC50 [8] of 15 µM, an IC50 [9] of 26 µM and an IC50 [10] of 39 µM. It also gave an IC50 [11] of 31 µM, an IC50 [12] of 22 µM and a Papp A→B at 5 uM [13] of 4.4 nm/s. It also gave a Papp B→A at 5 uM [13] of 16.9 nm/s, an efflux ratio at 5 uM [13] of 3.9 and a recovery at 5 uM ([13]; read-out: Caco2 Mean A-B % Recovery) of 47%. For the same compound, the “Microsomal stability % Remaining at T30” value [14] was “T30 = 78.6%”, the microsomal CLint at 5 uM ([14]; microsomes) was 14.9 µL/min/mg and the half-life at 5 uM [14, 25] was 1.55 h. For the same compound, the “Microsomal stability % Remaining at T30” value [15] was “T30 = 91.2%”, the microsomal CLint at 5 uM ([15]; microsomes) was 11.6 µL/min/mg and the half-life at 5 uM [15, 25] was over 2 h. For the same compound, the “CYP inhibition 1A2” value [16] was 88.9, the “CYP inhibition 2B6” value [17] was 69.6 and the “CYP inhibition 2C8” value [18] was 90.5. For the same compound, the “CYP inhibition 2C9” value [19] was 86.6, the “CYP inhibition 2C19” value [20] was 98.3 and the “CYP inhibition 2D6” value [21] was 93.9. For the same compound, the “Proliferation and apoptosis of cancer cells” value [22] was “reduced proliferation and induced apoptosis preferentially in MYC-driven cancers”.
For `CC(=O)c1c(C)c2cnc(Nc3ccc(N4CCNCC4)cn3)nc2n(C2CCCC2)c1=O` [Palbociclib, reference compound], the IC50 [23] was 72 µM, the IC50 [4] was 13 µM and the IC50 [24] was 5 µM. The IC50 [5] was 32 µM.
